From ChEMBL document CHEMBL1201862, “PubChem BioAssay data set” (2004)
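Method: 48-hour compound exposure of cells in 96-well plates, five concentrations, linear interpolation of endpoints. GI50: concentration for 50% inhibition of growth.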 The source made the active and inactive calls. Rule as the data show it: active = GI50 up to about 1.1 µM and inactive = higher.

How the values were obtained:
Test in all cases: NCI-60 cell line screen, 48 h
786-0 = system: 786-0
A549 = system: A549
BT-549 = system: BT-549
CCRF-CEM = system: CCRF-CEM
COLO 205 = system: COLO 205
DU-145 = system: DU-145
EKVX = system: EKVX
HCC 2998 = system: HCC 2998
HCT-116 = system: HCT-116
HCT-15 = system: HCT-15
HL-60 = system: HL-60
HOP-62 = system: HOP-62
HOP-92 = system: HOP-92
HT-29 = system: HT-29
IGROV-1 = system: IGROV-1
K562 = system: K562
KM12 = system: KM12
LOX IMVI = system: LOX IMVI
M14 = system: M14
MCF7 = system: MCF7
MDA-MB-231 = system: MDA-MB-231
MDA-MB-435 = system: MDA-MB-435
MDA-N = system: MDA-N
MOLT-4 = system: MOLT-4
NCI-H23 = system: NCI-H23
NCI-H460 = system: NCI-H460
NCI-H522 = system: NCI-H522
NCI/ADR-RES = system: NCI/ADR-RES
OVCAR-3 = system: OVCAR-3
OVCAR-4 = system: OVCAR-4
OVCAR-5 = system: OVCAR-5
OVCAR-8 = system: OVCAR-8
PC-3 = system: PC-3
RPMI-8226 = system: RPMI-8226
RXF 393 = system: RXF 393
SF-268 = system: SF-268
SF-295 = system: SF-295
SF-539 = system: SF-539
SK-MEL-28 = system: SK-MEL-28
SK-MEL-5 = system: SK-MEL-5
SK-OV-3 = system: SK-OV-3
SN12C = system: SN12C
SNB-19 = system: SNB-19
SNB-75 = system: SNB-75
SR = system: SR
SW-620 = system: SW-620
T47D = system: T47D
TK-10 = system: TK-10
U-251 = system: U-251
UACC-257 = system: UACC-257
UACC-62 = system: UACC-62
UO-31 = system: UO-31
A498 = system: A498
ACHN = system: ACHN
CAKI-1 = system: CAKI-1
Malme-3M = system: Malme-3M
NCI-H226 = system: NCI-H226
SK-MEL-2 = system: SK-MEL-2

O=C1CSC(c2c[nH]c3ccccc23)N1c1ccc(Cl)cc1Cl (stereo not drawn)
GI50 (786-0): > 100 µM (inactive)
GI50 (A549): > 100 µM (inactive)
GI50 (BT-549): > 100 µM (inactive)
GI50 (CCRF-CEM): > 100 µM (inactive)
GI50 (COLO 205): > 100 µM (inactive)
GI50 (DU-145): > 100 µM (inactive)
GI50 (EKVX): > 100 µM (inactive)
GI50 (HCC 2998): > 100 µM (inactive)
GI50 (HCT-116): > 100 µM (inactive)
GI50 (HCT-15): > 100 µM
GI50 (HL-60): > 100 µM (inactive)
GI50 (HOP-62): > 100 µM (inactive)
GI50 (HOP-92): > 100 µM (inactive)
GI50 (HT-29): > 100 µM (inactive)
GI50 (IGROV-1): > 100 µM (inactive)
GI50 (K562): > 100 µM (inactive)
GI50 (KM12): > 100 µM (inactive)
GI50 (LOX IMVI): > 100 µM (inactive)
GI50 (M14): > 100 µM (inactive)
GI50 (MCF7): > 100 µM (inactive)
GI50 (MDA-MB-231): > 100 µM (inactive)
GI50 (MDA-MB-435): > 10 µM (inactive)
GI50 (MDA-N): > 100 µM (inactive)
GI50 (MOLT-4): > 100 µM (inactive)
GI50 (NCI-H23): > 100 µM (inactive)
GI50 (NCI-H460): > 100 µM (inactive)
GI50 (NCI-H522): > 100 µM (inactive)
GI50 (NCI/ADR-RES): > 100 µM (inactive)
GI50 (OVCAR-3): > 100 µM (inactive)
GI50 (OVCAR-4): > 100 µM (inactive)
GI50 (OVCAR-5): > 100 µM (inactive)
GI50 (OVCAR-8): > 100 µM (inactive)
GI50 (PC-3): > 100 µM (inactive)
GI50 (RPMI-8226): > 100 µM (inactive)
GI50 (RXF 393): > 100 µM (inactive)
GI50 (SF-268): > 100 µM (inactive)
GI50 (SF-295): > 100 µM (inactive)
GI50 (SF-539): > 100 µM (inactive)
GI50 (SK-MEL-28): > 100 µM (inactive)
GI50 (SK-MEL-5): > 100 µM (inactive)
GI50 (SK-OV-3): > 100 µM (inactive)
GI50 (SN12C): > 100 µM (inactive)
GI50 (SNB-19): > 100 µM (inactive)
GI50 (SNB-75): 0.865 µM (active)
GI50 (SR): > 100 µM (inactive)
GI50 (SW-620): > 100 µM (inactive)
GI50 (T47D): > 100 µM (inactive)
GI50 (TK-10): > 100 µM (inactive)
GI50 (U-251): > 100 µM (inactive)
GI50 (UACC-257): > 100 µM (inactive)
GI50 (UACC-62): > 100 µM (inactive)
GI50 (UO-31): > 100 µM (inactive)

O=C(/C=C1/Nc2ccc([N+](=O)[O-])cc2N/C1=C/C(=O)c1ccc(Cl)cc1)c1ccc(Cl)cc1
GI50 (786-0): > 100 µM (inactive)
GI50 (A498): 10.1 µM (inactive)
GI50 (A549): > 100 µM (inactive)
GI50 (ACHN): > 100 µM (inactive)
GI50 (BT-549): > 100 µM (inactive)
GI50 (CAKI-1): > 100 µM (inactive)
GI50 (CCRF-CEM): 34.4 µM (inactive)
GI50 (COLO 205): > 100 µM (inactive)
GI50 (DU-145): > 100 µM (inactive)
GI50 (EKVX): > 100 µM (inactive)
GI50 (HCC 2998): > 100 µM (inactive)
GI50 (HCT-116): 15 µM (inactive)
GI50 (HCT-15): 24.2 µM
GI50 (HOP-62): > 100 µM (inactive)
GI50 (HT-29): > 100 µM (inactive)
GI50 (IGROV-1): > 100 µM (inactive)
GI50 (K562): 31.9 µM (inactive)
GI50 (KM12): > 100 µM (inactive)
GI50 (M14): > 100 µM (inactive)
GI50 (MCF7): 49.5 µM (inactive)
GI50 (MDA-MB-231): > 100 µM (inactive)
GI50 (MDA-MB-435): > 100 µM (inactive)
GI50 (MDA-N): > 100 µM (inactive)
GI50 (MOLT-4): > 100 µM (inactive)
GI50 (Malme-3M): > 100 µM (inactive)
GI50 (NCI-H226): > 100 µM (inactive)
GI50 (NCI-H23): 11.6 µM (inactive)
GI50 (NCI-H460): 42.9 µM (inactive)
GI50 (NCI-H522): 4.41 µM (inactive)
GI50 (NCI/ADR-RES): 43.2 µM (inactive)
GI50 (OVCAR-3): 80.2 µM (inactive)
GI50 (OVCAR-4): > 100 µM (inactive)
GI50 (OVCAR-5): > 100 µM (inactive)
GI50 (OVCAR-8): 54.8 µM (inactive)
GI50 (PC-3): 41.4 µM (inactive)
GI50 (RXF 393): 66.5 µM (inactive)
GI50 (SF-268): 60.5 µM (inactive)
GI50 (SF-295): 91 µM (inactive)
GI50 (SF-539): > 100 µM (inactive)
GI50 (SK-MEL-2): 13.6 µM (inactive)
GI50 (SK-MEL-5): 33.3 µM (inactive)
GI50 (SN12C): 17.7 µM (inactive)
GI50 (SNB-19): > 100 µM (inactive)
GI50 (SNB-75): > 100 µM (inactive)
GI50 (SR): > 100 µM (inactive)
GI50 (T47D): > 100 µM (inactive)
GI50 (TK-10): > 100 µM (inactive)
GI50 (U-251): > 100 µM (inactive)
GI50 (UACC-257): > 100 µM (inactive)
GI50 (UACC-62): 49.4 µM (inactive)
GI50 (UO-31): > 100 µM (inactive)

N#CC(c1cc(Cl)ncn1)c1nc2cc(C(F)(F)F)ccc2s1 (stereo not drawn)
GI50 (786-0): 3.3 µM (inactive)
GI50 (A498): 5.85 µM (inactive)
GI50 (A549): 6.01 µM (inactive)
GI50 (ACHN): 13.6 µM (inactive)
GI50 (BT-549): 3.09 µM (inactive)
GI50 (CAKI-1): 8.95 µM (inactive)
GI50 (COLO 205): 3.35 µM (inactive)
GI50 (DU-145): 12.9 µM (inactive)
GI50 (EKVX): 14.5 µM (inactive)
GI50 (HCT-116): 2.97 µM (inactive)
GI50 (HCT-15): 3.48 µM
GI50 (HOP-62): 13.8 µM (inactive)
GI50 (HOP-92): 2.14 µM (inactive)
GI50 (HT-29): 3.39 µM (inactive)
GI50 (IGROV-1): 5.87 µM (inactive)
GI50 (K562): 6.92 µM (inactive)
GI50 (KM12): 3.27 µM (inactive)
GI50 (LOX IMVI): 3.57 µM (inactive)
GI50 (M14): 4.09 µM (inactive)
GI50 (MDA-MB-231): 4.31 µM (inactive)
GI50 (MDA-MB-435): 4.31 µM (inactive)
GI50 (MDA-N): 3.42 µM (inactive)
GI50 (MOLT-4): 4.74 µM (inactive)
GI50 (Malme-3M): 4.14 µM (inactive)
GI50 (NCI-H226): 15.1 µM (inactive)
GI50 (NCI-H23): 2.58 µM (inactive)
GI50 (NCI-H460): 4.78 µM (inactive)
GI50 (NCI-H522): 1.24 µM (inactive)
GI50 (NCI/ADR-RES): 3.08 µM (inactive)
GI50 (OVCAR-3): 3.32 µM (inactive)
GI50 (OVCAR-4): 2.97 µM (inactive)
GI50 (OVCAR-5): 3.78 µM (inactive)
GI50 (OVCAR-8): 3.83 µM (inactive)
GI50 (RPMI-8226): 3.78 µM (inactive)
GI50 (RXF 393): 4.33 µM (inactive)
GI50 (SF-268): 3.66 µM (inactive)
GI50 (SF-295): 7.33 µM (inactive)
GI50 (SF-539): 4.63 µM (inactive)
GI50 (SK-MEL-28): 13 µM (inactive)
GI50 (SK-MEL-5): 9.57 µM (inactive)
GI50 (SK-OV-3): 17.5 µM (inactive)
GI50 (SN12C): 13.7 µM (inactive)
GI50 (SNB-19): 3.83 µM (inactive)
GI50 (SNB-75): 5.79 µM (inactive)
GI50 (SW-620): 5.37 µM (inactive)
GI50 (T47D): 4.29 µM (inactive)
GI50 (TK-10): 6.15 µM (inactive)
GI50 (U-251): 3.08 µM (inactive)
GI50 (UACC-257): 4.24 µM (inactive)
GI50 (UO-31): 4.97 µM (inactive)
